# Results taken from ChEMBL document CHEMBL1201862, “PubChem BioAssay data set” (2004).
#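 1) Cells in 96-well plates. 2) Compound, 48 h, 5 concentrations. 3) Linear interpolation between surrounding doses. 4) Unreached endpoint = highest concentration. Here, GI50 denotes the concentration required for 50% inhibition of growth.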 Active and inactive are the calls of the source. Cut-off read from the data, not from the text of the source: active = GI50 up to about 1.1 µM and inactive = higher. *1 amine or outer side, *2 acyl side, *3 side chain or, on linkers, in order; H or OH if unused. Where a SMILES comes first, the peptide text is derived from it. Bridges are numbered along the chain shown (N, C = ends). Roman numbers before positions name the chains, in order. [ ]: non-standard residue; d: D form. Actinocin(9to1) = Cc1c2oc3c(C)ccc(C(=O)[*:1])c3nc-2c(C(=O)[*:2])c(N)c1=O; Hyp = O=C(O)[CH]1C[CH](O)CN1; NMeV = CN[CH](C(=O)O)C(C)C; Sar = CNCC(=O)O
# Tests used:
# Assay in all cases: NCI-60 cell line screen, 48 h
# SK-OV-3 = test system: SK-OV-3
# 786-0 = test system: 786-0
# UACC-257 = test system: UACC-257
# Hs-578T = test system: Hs-578T
# EKVX = test system: EKVX
# SK-MEL-2 = test system: SK-MEL-2
# MDA-N = test system: MDA-N
# T47D = test system: T47D
# SK-MEL-5 = test system: SK-MEL-5
# SW-620 = test system: SW-620
# ACHN = test system: ACHN
# PC-3 = test system: PC-3
# RPMI-8226 = test system: RPMI-8226
# HL-60 = test system: HL-60
# CCRF-CEM = test system: CCRF-CEM
# NCI-H460 = test system: NCI-H460
# Malme-3M = test system: Malme-3M
# SNB-19 = test system: SNB-19
# NCI/ADR-RES = test system: NCI/ADR-RES
# U-251 = test system: U-251
# OVCAR-4 = test system: OVCAR-4
# OVCAR-5 = test system: OVCAR-5
# HOP-92 = test system: HOP-92
# HCT-116 = test system: HCT-116
# SK-MEL-28 = test system: SK-MEL-28
# MCF7 = test system: MCF7
# SF-268 = test system: SF-268
# UO-31 = test system: UO-31
# NCI-H522 = test system: NCI-H522
# HCC 2998 = test system: HCC 2998
# HCT-15 = test system: HCT-15
# LOX IMVI = test system: LOX IMVI
# HOP-62 = test system: HOP-62
# RXF 393 = test system: RXF 393
# TK-10 = test system: TK-10
# SR = test system: SR
# UACC-62 = test system: UACC-62
# MDA-MB-231 = test system: MDA-MB-231
# CAKI-1 = test system: CAKI-1
# DU-145 = test system: DU-145
# IGROV-1 = test system: IGROV-1
# OVCAR-3 = test system: OVCAR-3
# HT-29 = test system: HT-29
# SN12C = test system: SN12C
# SNB-75 = test system: SNB-75
# MDA-MB-435 = test system: MDA-MB-435
# SF-295 = test system: SF-295
# COLO 205 = test system: COLO 205
# A498 = test system: A498
# NCI-H23 = test system: NCI-H23
# MOLT-4 = test system: MOLT-4
# SF-539 = test system: SF-539
# A549 = test system: A549
# KM12 = test system: KM12
# NCI-H226 = test system: NCI-H226
# OVCAR-8 = test system: OVCAR-8
# K562 = test system: K562
# M14 = test system: M14
# BT-549 = test system: BT-549
smiles,measurement,setting,value
C[C@@H]1OCC(O)C([C@H]2OC(c3ccccc3)=N[C@H]2CO)O1 (stereo partly specified),GI50,SK-OV-3,> 100 µM (inactive)
same,GI50,786-0,> 100 µM (inactive)
same,GI50,UACC-257,> 100 µM (inactive)
same,GI50,Hs-578T,> 100 µM (inactive)
same,GI50,EKVX,> 100 µM (inactive)
same,GI50,SK-MEL-2,> 100 µM (inactive)
same,GI50,MDA-N,> 100 µM (inactive)
same,GI50,T47D,> 100 µM (inactive)
same,GI50,SK-MEL-5,> 100 µM (inactive)
same,GI50,SW-620,> 100 µM (inactive)
same,GI50,ACHN,> 100 µM (inactive)
same,GI50,PC-3,> 100 µM (inactive)
same,GI50,RPMI-8226,> 100 µM (inactive)
same,GI50,HL-60,> 100 µM (inactive)
same,GI50,CCRF-CEM,> 100 µM (inactive)
same,GI50,NCI-H460,> 100 µM (inactive)
same,GI50,Malme-3M,> 100 µM (inactive)
same,GI50,SNB-19,> 100 µM (inactive)
same,GI50,NCI/ADR-RES,> 100 µM (inactive)
same,GI50,U-251,> 100 µM (inactive)
same,GI50,OVCAR-4,> 100 µM (inactive)
same,GI50,OVCAR-5,> 100 µM (inactive)
same,GI50,HOP-92,> 100 µM (inactive)
same,GI50,HCT-116,> 100 µM (inactive)
same,GI50,SK-MEL-28,> 100 µM (inactive)
same,GI50,MCF7,> 100 µM (inactive)
same,GI50,SF-268,> 100 µM (inactive)
same,GI50,UO-31,> 100 µM (inactive)
same,GI50,NCI-H522,> 100 µM (inactive)
same,GI50,HCC 2998,> 100 µM (inactive)
same,GI50,HCT-15,> 100 µM
same,GI50,LOX IMVI,> 100 µM (inactive)
same,GI50,HOP-62,> 100 µM (inactive)
same,GI50,RXF 393,> 100 µM (inactive)
same,GI50,TK-10,> 100 µM (inactive)
same,GI50,SR,> 100 µM (inactive)
same,GI50,UACC-62,> 100 µM (inactive)
same,GI50,MDA-MB-231,> 100 µM (inactive)
same,GI50,CAKI-1,> 100 µM (inactive)
same,GI50,DU-145,> 100 µM (inactive)
same,GI50,IGROV-1,> 100 µM (inactive)
same,GI50,OVCAR-3,> 100 µM (inactive)
same,GI50,HT-29,> 100 µM (inactive)
same,GI50,SN12C,> 100 µM (inactive)
same,GI50,SNB-75,72.1 µM (inactive)
same,GI50,MDA-MB-435,> 100 µM (inactive)
same,GI50,SF-295,> 100 µM (inactive)
same,GI50,COLO 205,> 100 µM (inactive)
same,GI50,A498,> 100 µM (inactive)
same,GI50,NCI-H23,> 100 µM (inactive)
same,GI50,MOLT-4,> 100 µM (inactive)
same,GI50,SF-539,> 100 µM (inactive)
same,GI50,A549,> 100 µM (inactive)
same,GI50,KM12,> 100 µM (inactive)
same,GI50,NCI-H226,> 100 µM (inactive)
same,GI50,OVCAR-8,> 100 µM (inactive)
same,GI50,K562,> 100 µM (inactive)
same,GI50,M14,> 100 µM (inactive)
CSc1n[nH]c2c1c(C)nn2-c1ccccc1,GI50,SK-OV-3,> 100 µM (inactive)
same,GI50,UACC-257,> 100 µM (inactive)
same,GI50,EKVX,> 100 µM (inactive)
same,GI50,SK-MEL-2,> 100 µM (inactive)
same,GI50,SK-MEL-5,> 100 µM (inactive)
same,GI50,SW-620,> 100 µM (inactive)
same,GI50,PC-3,> 100 µM (inactive)
same,GI50,RPMI-8226,> 100 µM (inactive)
same,GI50,HL-60,71.3 µM (inactive)
same,GI50,NCI-H460,> 100 µM (inactive)
same,GI50,SNB-19,> 100 µM (inactive)
same,GI50,U-251,> 100 µM (inactive)
same,GI50,OVCAR-4,> 100 µM (inactive)
same,GI50,OVCAR-5,> 100 µM (inactive)
same,GI50,HOP-92,> 100 µM (inactive)
same,GI50,SK-MEL-28,> 100 µM (inactive)
same,GI50,MCF7,> 100 µM (inactive)
same,GI50,UO-31,> 100 µM (inactive)
same,GI50,HCC 2998,> 100 µM (inactive)
same,GI50,HCT-15,> 100 µM
same,GI50,RXF 393,> 100 µM (inactive)
same,GI50,BT-549,> 100 µM (inactive)
same,GI50,TK-10,> 100 µM (inactive)
same,GI50,SR,> 100 µM (inactive)
same,GI50,UACC-62,> 100 µM (inactive)
same,GI50,IGROV-1,> 100 µM (inactive)
same,GI50,OVCAR-3,> 100 µM (inactive)
same,GI50,HT-29,> 100 µM (inactive)
same,GI50,MDA-MB-435,> 100 µM (inactive)
same,GI50,NCI-H23,> 100 µM (inactive)
same,GI50,MOLT-4,> 100 µM (inactive)
same,GI50,SF-539,> 100 µM (inactive)
same,GI50,A549,> 100 µM (inactive)
same,GI50,NCI-H226,> 100 µM (inactive)
same,GI50,K562,> 100 µM (inactive)
same,GI50,M14,> 100 µM (inactive)
"Cc1c2oc3c(C)ccc(C(=O)NC4C(=O)NC(C(C)C)C(=O)N5CC(O)CC5C(=O)N(C)CC(=O)N(C)C(C(C)C)C(=O)OC4C)c3nc-2c(C(=O)NC2C(=O)NC(C(C)C)C(=O)N3CC(O)CC3C(=O)N(C)CC(=O)N(C)C(C(C)C)C(=O)OC2C)c(N)c1=O (stereo unspecified) (I: TV[Hyp][Sar][NMeV] / II: TV[Hyp][Sar][NMeV]; ester I:1-I:C, II:1-II:C; linker I:N-II:N via Actinocin(9to1); configuration not given here)",GI50,SK-OV-3,> 1 µM (active)
same,GI50,786-0,> 1 µM (active)
same,GI50,UACC-257,> 1 µM (active)
same,GI50,Hs-578T,> 1 µM (active)
same,GI50,EKVX,> 1 µM (active)
same,GI50,SK-MEL-2,> 1 µM (active)
same,GI50,MDA-N,> 1 µM (active)
same,GI50,T47D,> 1 µM (active)
same,GI50,SK-MEL-5,> 1 µM (active)
same,GI50,SW-620,> 1 µM (active)
same,GI50,ACHN,> 1 µM (active)
same,GI50,PC-3,> 1 µM (active)
same,GI50,RPMI-8226,> 1 µM (active)
same,GI50,HL-60,> 1 µM (active)
same,GI50,CCRF-CEM,> 1 µM (active)
same,GI50,NCI-H460,> 1 µM (active)
same,GI50,Malme-3M,> 1 µM (active)
same,GI50,SNB-19,> 1 µM (active)
same,GI50,NCI/ADR-RES,> 1 µM (active)
same,GI50,U-251,> 1 µM (active)
same,GI50,OVCAR-4,> 1 µM (active)
same,GI50,OVCAR-5,> 1 µM (active)
same,GI50,HOP-92,> 1 µM (active)
same,GI50,HCT-116,> 1 µM (active)
same,GI50,SK-MEL-28,> 1 µM (active)
same,GI50,MCF7,> 1 µM (active)
same,GI50,SF-268,> 1 µM (active)
same,GI50,UO-31,> 1 µM (active)
same,GI50,NCI-H522,0.0522 µM (active)
same,GI50,HCC 2998,> 1 µM (active)
same,GI50,HCT-15,> 1 µM
same,GI50,LOX IMVI,> 1 µM (active)
same,GI50,HOP-62,> 1 µM (active)
same,GI50,RXF 393,> 1 µM (active)
same,GI50,TK-10,> 1 µM (active)
same,GI50,SR,0.748 µM (active)
same,GI50,MDA-MB-231,> 1 µM (active)
same,GI50,CAKI-1,> 1 µM (active)
same,GI50,DU-145,> 1 µM (active)
same,GI50,IGROV-1,> 1 µM (active)
same,GI50,OVCAR-3,> 1 µM (active)
same,GI50,HT-29,> 1 µM (active)
same,GI50,SN12C,> 1 µM (active)
same,GI50,SNB-75,> 1 µM (active)
same,GI50,MDA-MB-435,> 1 µM (active)
same,GI50,SF-295,> 1 µM (active)
same,GI50,COLO 205,> 1 µM (active)
same,GI50,A498,> 1 µM (active)
same,GI50,NCI-H23,> 1 µM (active)
same,GI50,MOLT-4,> 1 µM (active)
same,GI50,SF-539,> 1 µM (active)
same,GI50,A549,> 1 µM (active)
same,GI50,KM12,> 1 µM (active)
same,GI50,NCI-H226,> 1 µM (active)
same,GI50,OVCAR-8,> 1 µM (active)
same,GI50,K562,> 1 µM (active)
same,GI50,M14,> 1 µM (active)
